Laboratory results taken from the supplement of paper PMC10307832.

Assays:
Test in all cases: relative viability (nuclei count vs DMSO), 5 days (fraction); higher = more cells survive
BX 795 + Palbociclib = compound: O=C(NCCCNc1nc(Nc2cccc(NC(=O)N3CCCC3)c2)ncc1I)c1cccs1 [BX 795] + CC(=O)c1c(C)c2cnc(Nc3ccc(N4CCNCC4)cn3)nc2n(C2CCCC2)c1=O [Palbociclib] (partner 0.5 µM)
How it was run: (§1)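 Relative viability divides the nuclei count in treated wells by that in vehicle wells. Lung cancer cell lines were seeded in 1536-well plates, dosed by pin tool the next day, and fixed and stained after 5 days in one step with final 0.05% Triton X-100, 1% formaldehyde and 1 ug/ml Hoechst. Dosing was a single drug or a fixed anchor-drug dose plus five library-drug doses (not always all listed) in √10 steps, and values are medians of duplicate plates imaged at 4×.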

BX 795 + Bortezomib = compound: O=C(NCCCNc1nc(Nc2cccc(NC(=O)N3CCCC3)c2)ncc1I)c1cccs1 [BX 795] + CC(C)C[C@H](NC(=O)[C@H](Cc1ccccc1)NC(=O)c1cnccn1)B(O)O [Bortezomib] (partner 0.002 µM)
How it was run: as §1

BX 795 + Pictilisib = compound: O=C(NCCCNc1nc(Nc2cccc(NC(=O)N3CCCC3)c2)ncc1I)c1cccs1 [BX 795] + CS(=O)(=O)N1CCN(Cc2cc3nc(-c4cccc5[nH]ncc45)nc(N4CCOCC4)c3s2)CC1 [Pictilisib] (partner 1 µM)
How it was run: as §1

BX 795 + Pemetrexed = compound: O=C(NCCCNc1nc(Nc2cccc(NC(=O)N3CCCC3)c2)ncc1I)c1cccs1 [BX 795] + Nc1nc2[nH]cc(CCc3ccc(C(=O)N[C@@H](CCC(=O)O)C(=O)O)cc3)c2c(=O)[nH]1 [Pemetrexed] (partner 0.2 µM)
How it was run: as §1

BX 795 + Olaparib = compound: O=C(NCCCNc1nc(Nc2cccc(NC(=O)N3CCCC3)c2)ncc1I)c1cccs1 [BX 795] + O=C(c1cc(Cc2n[nH]c(=O)c3ccccc23)ccc1F)N1CCN(C(=O)C2CC2)CC1 [Olaparib] (partner 8 µM)
How it was run: as §1

Row | Cell Line | relative viability (BX 795 + Palbociclib; first compound 0.04 µM) | relative viability (BX 795 + Palbociclib; first compound 0.1265 µM) | relative viability (BX 795 + Palbociclib; first compound 0.4 µM) | relative viability (BX 795 + Palbociclib; first compound 1.265 µM) | relative viability (BX 795 + Bortezomib; first compound 0.04 µM) | relative viability (BX 795 + Bortezomib; first compound 0.1265 µM) | relative viability (BX 795 + Bortezomib; first compound 0.4 µM) | relative viability (BX 795 + Bortezomib; first compound 1.265 µM) | relative viability (BX 795 + Pictilisib; first compound 0.04 µM) | relative viability (BX 795 + Pictilisib; first compound 0.1265 µM) | relative viability (BX 795 + Pictilisib; first compound 0.4 µM) | relative viability (BX 795 + Pictilisib; first compound 1.265 µM) | relative viability (BX 795 + Pemetrexed; first compound 0.04 µM) | relative viability (BX 795 + Pemetrexed; first compound 0.1265 µM) | relative viability (BX 795 + Pemetrexed; first compound 0.4 µM) | relative viability (BX 795 + Pemetrexed; first compound 1.265 µM) | relative viability (BX 795 + Olaparib; first compound 0.04 µM) | relative viability (BX 795 + Olaparib; first compound 0.1265 µM) | relative viability (BX 795 + Olaparib; first compound 0.4 µM) | relative viability (BX 795 + Olaparib; first compound 1.265 µM)
1 | NCI-H1650 | 0.394 | 0.328 | 0.319 | 0.289 | 0.219 | 0.2 | 0.189 | 0.193 | 0.698 | 0.576 | 0.517 | 0.498 | 0.392 | 0.431 | 0.243 | 0.416 | 0.903 | 0.713 | 0.711 | 0.814
2 | NCI-H1651 | 0.566 | 0.534 | 0.538 | 0.541 | 0.925 | 0.961 | 1.04 | 0.971 | 0.569 | 0.617 | 0.615 | 0.645 | 0.602 | 0.571 | 0.409 | 0.596 | 0.193 | 0.166 | 0.167 | 0.163
3 | NCI-H1666 | 0.536 | 0.641 | 0.7 | 0.657 | 0.653 | 0.806 | 0.913 | 0.688 | 0.364 | 0.516 | 0.449 | 0.273 | 0.836 | 0.83 | 0.697 | 0.79 | 0.939 | 0.707 | 0.938 | 0.726
4 | NCI-H1734 | 0.404 | 0.377 | 0.35 | 0.354 | 0.965 | 1.03 | 0.914 | 0.545 | 0.463 | 0.471 | 0.411 | 0.368 | 0.348 | 0.421 | 0.33 | 0.398 | 0.612 | 0.662 | 0.501 | 0.514
5 | NCI-H1755 | 0.493 | 0.43 | 0.458 | 0.441 | 1.01 | 0.963 | 1.05 | 0.758 | 0.442 | 0.418 | 0.35 | 0.305 | 0.42 | 0.44 | 0.381 | 0.447 | 0.961 | 0.858 | 0.956 | 0.725
6 | NCI-H1792 | 0.724 | 0.633 | 0.643 | 0.613 | 0.963 | 1.08 | 1.12 | 0.954 | 0.286 | 0.269 | 0.24 | 0.191 | 0.918 |  | 0.882 | 0.533 | 0.401 |  | 0.302 | 0.422
7 | NCI-H1915 | 0.63 | 0.501 | 0.637 | 0.485 | 1.07 | 1.01 | 0.974 | 0.953 | 0.98 | 0.831 | 0.954 | 0.798 | 0.347 | 0.458 | 0.304 | 0.442 | 0.297 | 0.26 | 0.217 | 0.242
8 | NCI-H1975 | 0.758 | 0.712 | 0.509 | 0.526 | 0.332 | 0.414 | 0.392 | 0.249 | 0.3 | 0.328 | 0.26 | 0.224 | 0.272 | 0.299 | 0.247 | 0.297 | 0.811 | 0.961 | 0.632 | 0.586
9 | NCI-H1993 | 0.67 | 0.744 | 0.671 | 0.642 | 1.15 | 1.26 | 1.05 | 1.02 | 0.83 | 0.79 | 0.793 | 0.806 | 0.624 | 0.616 | 0.623 | 0.585 | 0.847 | 0.92 | 1.16 | 0.92
10 | NCI-H2009 | 0.24 | 0.233 | 0.185 | 0.167 | 0.97 | 0.924 | 0.996 | 0.804 | 0.777 | 0.744 | 0.823 | 0.626 | 0.973 | 0.978 | 1.04 | 0.907 | 0.717 | 0.632 | 0.575 | 0.355
11 | NCI-H2023 | 0.4 | 0.366 | 0.358 | 0.17 | 0.932 | 0.965 | 0.433 | 0.675 | 0.152 | 0.239 | 0.188 | 0.197 | 0.257 | 0.221 | 0.139 | 0.182 | 0.461 | 0.494 | 0.403 | 0.26
12 | NCI-H2085 | 0.466 | 0.465 | 0.515 | 0.51 | 1.04 | 0.98 | 1.02 | 0.999 | 0.463 | 0.454 | 0.433 | 0.489 | 0.848 | 0.865 | 0.919 | 0.899 | 0.827 | 0.833 | 0.914 | 0.72
13 | NCI-H2087 | 0.219 | 0.248 | 0.322 | 0.209 | 0.952 | 0.898 | 1.18 | 0.719 | 0.999 | 1.02 | 1.03 | 0.756 | 0.695 | 0.655 | 0.696 | 0.654 | 0.833 | 0.761 | 0.781 | 0.448
14 | NCI-H2126 | 0.387 | 0.329 | 0.35 | 0.34 | 1.08 | 1.07 | 1.21 | 1.07 | 0.479 | 0.462 | 0.566 | 0.448 | 0.713 | 0.692 | 0.457 | 0.666 | 0.982 | 0.909 | 1 | 0.893
15 | NCI-H2228 | 1.07 | 0.787 | 0.974 | 0.658 | 1.03 | 1.11 | 0.907 | 0.308 | 0.517 | 0.439 | 0.377 | 0.239 | 0.329 | 0.331 | 0.268 | 0.281 | 0.788 | 0.74 | 0.559 | 0.311
16 | NCI-H2347 | 0.496 | 0.417 | 0.523 | 0.496 | 1.19 | 1.05 | 1.23 | 0.934 | 0.818 | 0.492 | 0.851 | 0.722 | 0.424 | 0.375 | 0.434 | 0.434 | 0.679 | 0.658 | 0.646 | 0.515
